The structures appear in SMILES notation. pIC50: −log10 of the molar value. Where only a bound is given, the exact number is not on record here.

In data set [1] the target is T1, N-lysine methyltransferase SMYD2 (Homo sapiens, UniProt Q9NRG4). Description: Inhibition of SMYD2 (unknown origin) using 3H-SAM as substrate incubated for 1 hr by filter binding method.
Data set [2] has as its target T1, N-lysine methyltransferase SMYD2. Nature of the data set: Inhibition of SMYD2 (unknown origin) assessed as residual activity at 10 uM using 3H-SAM as substrate incubated for 1 hr by filter binding method relative to control.
The test system of the next data set is MDA-MB-231. Description: Antiproliferative activity against human MDA-MB-231 cells assessed as inhibition of cell growth incubated for 72 hrs by CellTiter-Glo luminescent cell viability assay. To be noted: MDA-MB-231, 72 h. Type of data set: functional, cell-based. (In general: Cellular ATP, detected with luciferase, serves as a proxy for viable cell number.)

In another data set the test system is Ca-Ski. Description: cells. In kind it is functional, cell-based. To be noted: Homo sapiens, 72 h.
A further data set relates to HEK293. Nature of the data set: Induction of apoptosis in HEK293 cells assessed as increase in cleaved PARP level incubated for 24 hrs by immunoblot analysis. Type of data set: toxicity, cell-based. The following applies: human, hek293, 24 h, DDE = dose-dependent effect, dose 0.0195-10 µM.

T1 sequence (Q9NRG4 whole entry): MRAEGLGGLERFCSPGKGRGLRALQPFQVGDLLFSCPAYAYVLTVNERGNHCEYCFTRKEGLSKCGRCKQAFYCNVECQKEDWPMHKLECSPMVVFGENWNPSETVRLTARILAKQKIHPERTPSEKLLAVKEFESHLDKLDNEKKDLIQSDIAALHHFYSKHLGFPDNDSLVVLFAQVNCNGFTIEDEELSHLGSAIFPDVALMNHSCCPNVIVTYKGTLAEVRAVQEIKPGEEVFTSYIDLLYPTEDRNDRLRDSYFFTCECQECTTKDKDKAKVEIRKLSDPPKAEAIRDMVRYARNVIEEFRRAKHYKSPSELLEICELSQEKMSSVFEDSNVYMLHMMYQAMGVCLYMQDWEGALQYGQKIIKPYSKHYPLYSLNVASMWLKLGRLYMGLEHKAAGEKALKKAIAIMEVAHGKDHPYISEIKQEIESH
Description for Ca-Ski: Antiproliferative activity against human Ca-Ski cells assessed as inhibition of cell growth incubated for 72 hrs by CellTiter-Glo luminescent cell viability assay

Turning to `O=C1COc2c([C@@H](O)CNCCN(C(=O)CCNCCc3ccc(Cl)c(Cl)c3)C3CCCCC3)ccc(O)c2N1`, the pIC50 in data set [1] was 8.52.
On the same count and under the same terms, then `CN1C(=O)C(CCO[Si](c2ccccc2)(c2ccccc2)C(C)(C)C)COC12C=CC(=NNc1ccccc1)C=C2` (stereo unspecified), with 5.24.
In data set [1], `CC(C)N1C(=O)C(Cc2ccc(F)cc2)COC12C=CC(=O)C=C2` (stereo unspecified) showed a pIC50 of less than 4.70. For the same compound, the Activity in data set [2] was 36%.
On the same counts, the results for `CC1COC2(C=CC(=O)C=C2)N(C(C)C)C1=O` (stereo unspecified) are less than 4.70 and 96.5%.
Consider `CN1C(=O)C(CCNc2ccc(-c3cccs3)cc2)COC12C=CC(=O)C=C2` (stereo unspecified), for which the pIC50 in data set [1] was 5.64. In addition, the Activity in data set [2] was found to be 16.1%.
On the same counts, the results for `CC(C)N1C(=O)C(Cc2cc(C(F)(F)F)ccc2Cl)COC12C=CC(=O)C=C2` (stereo unspecified) are less than 4.70 and 27.8%.
For `CC(C)N1C(=O)C(Cc2c(F)cccc2C(F)(F)F)COC12C=CC(=O)C=C2` (stereo unspecified), in that order: less than 4.70 and 47.2%.
As to `CC(C)N1C(=O)C(CCO[Si](c2ccccc2)(c2ccccc2)C(C)(C)C)COC12C=CC(=O)C=C2` (stereo unspecified), in data set [1], the negative logarithm of the IC50 (pIC50) is 6.40.
With `CN[C@@H]1C[C@H]2O[C@@](C)([C@@H]1OC)n1c3ccccc3c3c4c(c5c6ccccc6n2c5c31)C(=O)NC4` [STAUROSPORINE], the pIC50 in the data set with MDA-MB-231 was 9.07.
With `CC(C)N1C(=O)C(Cc2ccc(C(F)(F)F)cc2)COC12C=CC(=O)C=C2` (stereo unspecified), the pIC50 in data set [1] is less than 4.70. Further, the Activity in data set [2] came to 33.8%.
On the same counts, the results for `CC(C)N1C(=O)C(Cc2ccc(Cl)cc2)COC12C=CC(=O)C=C2` (stereo unspecified) are less than 4.70 and 41.4%.
`N#Cc1cccc(-n2cc(CC3COC4(C=CC(=O)C=C4)N(c4ccccc4)C3=O)nn2)c1` (stereo unspecified) showed a pIC50 in data set [1] of less than 4.52.
On to `CN1C(=O)C(C/C=N/n2c3ccccc3c3ccccc32)COC12C=CC(=O)C=C2` (stereo unspecified), for which the pIC50 in the data set with Ca-Ski was 6.03; with MDA-MB-231, 5.97; in data set [1] it was 5.51. Further, the Activity in data set [2] stood at 19.9%.
Take `O=C1C=CC2(C=C1)OCC(Cc1cc(C(F)(F)F)cc(C(F)(F)F)c1)C(=O)N2c1ccccc1` (stereo unspecified): the figures for the pIC50 (in the data set with Ca-Ski; with MDA-MB-231; in data set [1]) were 6.06, 5.79 and 4.73, respectively.
For the compound `CN1C(=O)C(CCNc2ccccc2)COC12C=CC(=O)C=C2` (stereo unspecified), the pIC50 in data set [1] is less than 4.70. Besides, the Activity in data set [2] came to 45.1%.
For `CC(C)N1C(=O)C(Cc2ccc(C#N)cc2)COC12C=CC(=O)C=C2` (stereo unspecified), in that order: less than 4.70 and 80.7%.
On the same counts, the results for `CN1C(=O)C(CCNc2cc(F)cc(C(F)(F)F)c2)COC12C=CC(=O)C=C2` (stereo unspecified) are 5.12 and 53.5%.
In the case of `C=CCC1COC2(C=CC(=O)C=C2)N(C(C)C)C1=O` (stereo unspecified), in data set [1], the pIC50 is less than 4.70. For the same compound, in data set [2], the Activity stood at 101%.
Take `CN1C(=O)C(CCNc2cc(C(F)(F)F)cc(C(F)(F)F)c2)COC12C=CC(=O)C=C2` (stereo unspecified): the pIC50 in the data set with Ca-Ski was 6.10; in the data set on MDA-MB-231 it was 6.18; in data set [1], 5.67. The Activity in data set [2] is 6.94%.
`CN1C(=O)C(CCNc2ccc(C(=O)c3ccccc3)cc2)COC12C=CC(=O)C=C2` (stereo unspecified) showed a negative logarithm of the IC50 (pIC50) in data set [1] of less than 4.70. Further, the Activity in data set [2] was 44.6%.
On to `CC(C)N1C(=O)C(Cc2cc(C(F)(F)F)cc(C(F)(F)F)c2)COC12C=CC(=O)C=C2` (stereo unspecified), for which the pIC50 in the data set on Ca-Ski was 6.13; in the data set on MDA-MB-231, 5.99; in data set [1], 5.62. Besides, the Activity entry in the data set on HEK293 is “Dde”; in data set [2] it was 6.72%.
Compound `CN1C(=O)C(CCNc2ccc(F)cc2)COC12C=CC(=O)C=C2` (stereo unspecified) showed a pIC50 in data set [1] of 4.94. Further, the Activity in data set [2] worked out at 20.6%.
Compound `CC(C)N1C(=O)C(Cc2ccccc2CS(=O)(=O)c2ccccc2)COC12C=CC(=O)C=C2` (stereo unspecified) gave a pIC50 in data set [1] of less than 4.70. Also, in data set [2], the Activity worked out at 50.4%.
In turn, `CC(C)N1C(=O)C(Cc2ccc([N+](=O)[O-])cc2)COC12C=CC(=O)C=C2` (stereo unspecified) had a negative-log IC50 (pIC50) in data set [1] of less than 4.70. Besides, the Activity in data set [2] was 66.7%.
For `COc1ccc(N2CCCCC2)c(NCCC2COC3(C=CC(=O)C=C3)N(C)C2=O)c1` (stereo unspecified), in that order: 5.26 and 14.2%.
On the same counts, the results for `CN1C(=O)C(CCNc2ccc(Cl)c(Cl)c2)COC12C=CC(=O)C=C2` (stereo unspecified) are 5.42 and 12.6%.
For `CN1C(=O)C(CCNc2cccnc2)COC12C=CC(=O)C=C2` (stereo unspecified), in that order: less than 4.70 and 74.2%.
In the case of `CN1C(=O)C(CCO[Si](C)(C)C(C)(C)C)COC12C=CC(=O)C=C2` (stereo unspecified), the pIC50 in data set [1] was less than 4.52.
Take `CC(C)N1C(=O)C(Cc2cccc(Br)c2)COC12C=CC(=O)C=C2` (stereo unspecified): the negative-log IC50 (pIC50) in data set [1] was less than 4.70. Moreover, in data set [2], the Activity was 42.5%.
Consider `CN1C(=O)C(CCO)COC12C=CC(=O)C=C2` (stereo unspecified), for which the pIC50 in data set [1] was less than 4.52.
`CN1C(=O)C(CCNc2cccc(Cc3ccccc3)c2)COC12C=CC(=O)C=C2` (stereo unspecified) gave a pIC50 in data set [1] of 5.21. Moreover, in data set [2], the Activity was 13.6%.
`CC(C)[Si](OCCC1COC2(C=CC(=O)C=C2)N(C)C1=O)(C(C)C)C(C)C` (stereo unspecified) gave a pIC50 in data set [1] of 6.17.
On to `CN1C(=O)C(CCNc2cnc3ccccc3c2)COC12C=CC(=O)C=C2` (stereo unspecified), for which, in data set [1], the pIC50 was less than 4.70. For the same compound, the Activity in data set [2] is 64.6%.

In general, pIC50 refers to −log10 of the IC50, conventionally taken in molar units.

The values above are taken from ChEMBL document CHEMBL5143511, “Positioning of an unprecedented 1,5-oxaza spiroquinone scaffold into SMYD2 inhibitors in epigenetic space” (Eur J Med Chem, 2022).
